Experiment [1] concerns the target Beta Secretase enzyme (BACE) (Homo sapiens, UniProt P56817). Description: In vitro enzymatic BACE FRET assay. Particulars: average IC50; read-out: BACE1 FRET assay IC50. The format is biochemical. On the procedure: In Vitro Enzymatic BACE FRET (Fluorescence Resonance Energy Transfer) Assay (Enzyme Assay Data in the Example Table I)
The assay buffer used in this screen is 0.05 M acetate, pH 4.2, 10% DMSO final, 100 uM genapol (which is a nonionic detergent, below its Critical Micelle Concentration). The Beta Secretase enzyme (0.2 nM) is pre-incubated for one hour with inhibitors, typically in about 1 uL of DMSO according to a serial dilution, are added thereto. This assay is effectively started by the addition of FRET substrate (50 nM) and the combination is incubated for one hour. The FRET assay is terminated with by addition of Tris buffer, which raises the pH to neutrality, and the fluorescence is determined. The FRET substrate is a peptide with commercially available fluorophore and quencher, on opposite sides of the BACE cleavage site. Proteolytic cleavage of the FRET substrate releases quenching of fluorescence (excitation 488 nm and […]).

In experiment [2] the test system is Aβ 40 in conditioned medium of cells stably expressing Amyloid Precursor Protein (APP). Briefly: In vitro BACE cell-based assay (Aβ 40 sandwich ELISA). The conditions noted are these: Homo sapiens, HEK293; HEK cell; average IC50. The method, then:
In Vitro BACE Cell-Based Assay
The cell-based assay measures inhibition or reduction of […] in conditioned medium of test compound treated cells expressing amyloid precursor protein.
Cells stably expressing Amyloid Precursor Protein (APP) were plated at a density of 40K cells/well in 96 well plates (Costar). The cells were cultivated for 24 hours at 37° C. and 5% CO2 in DMEM supplemented with 10% FBS. The test compounds were then added to cells in 10-point dose response concentrations with the starting concentration being either 100 μM or 10 μM. The compounds were diluted from stock solutions in DMSO and the final DMSO concentration of the test compounds on cells was 0.1%. After 24 h of incubation with the test compounds the supernatant conditioned media was collected and the Aβ 40 levels were determined using a sandwich ELISA. The IC50 of the compound was calculated from the percent of control or percent inhibition of Aβ 40 as a function of the concentration of the test compound.
The sandwich ELISA to detect Aβ 40 was performed in 96 well microtiter plates, which were pre-treated with goat anti-rabbit IgG (Pierce). The capture and detecting antibody pair that were used to detect Aβ 40 from cell supernatants were affinity purified pAb40 (Biosource) and biotinylated 6E10 (Signet Labs Inc.), respectively. The optimal concentration for the pAb40 antibody was 3 μg/ml in Superblock/TBS (Pierce) that was supplemented with 0.05% Tween 20 (Sigma). Optimal concentration for the detection antibody 6E10-biotinylated was 0.5 μg/ml in Superblock/TBS (Pierce) that had been supplemented with 2% normal goat serum and 2% normal mouse serum.
Cellular supernatants were incubated with the capture antibody for 3 h at 4° C., followed by 3 wash steps in TBS-tween (0.05%). The detecting antibody incubation was for 2 h at 4° C., again followed by the wash steps as described previously. The final readout of the ELISA is Time-Resolved Fluorescence (counts per minute) using Delfia reagents Streptavidin-Europium and Enhancement solutions (Perkin Elmer) and the Victor 2 multilabel counter (Perkin Elmer).

Another experiment addresses Cathepsin D (Cat D) (Homo sapiens, UniProt P07339). Briefly: In vitro enzymatic Cathepsin D (Cat D) FRET assay. The format is biochemical. On the procedure: In Vitro Enzymatic Cathepsin D (Cat D) FRET (Fluorescence Resonance Energy Transfer) Assay
Recombinant Cat D was expressed in CHO cells. The assay buffer for CathepsinD is 0.05 M citrate pH 3.5, 10% DMSO final, 5 mM CHAPS. The Cat D enzyme (9 nM) is pre-incubated for one hour with inhibitors, typically in about 1 uL of DMSO according to a serial dilution, is added thereto. The assays are effectively started by the addition of different FRET substrates (20 nM for Cat D) and the combination is incubated for one hour. The FRET assay is terminated with by addition of Tris buffer, which raises the pH to neutrality, and the fluorescence is determined. The FRET substrate is a peptide with commercially available fluorophore and quencher, on opposite sides of the BACE cleavage site. The Cat D substrate peptide sequence is based on sequence #1 of Table 1 from Gulnik et al. FEBS Letters v413 p 379-384 1997. Proteolytic cleavage of the FRET substrate releases quenching of fluorescence (Cat D excitation 500 nm and emission 580 nm). […]
See, for instance, examples 8, 12, 15, 16, 18, 21-23, 24, 25, 26, 29, 30, 32, 41-42, 45, 53, 54, 57, 63, 67-69, 72-74, 76, 79-81, 83 & 84 (to point to just a few; referring to data in Table 2). […] See, for instance, examples 8, 12, 15, 18, 21-23, 25, 29, 30, 32, 41-42, 45, 54, 57, 67-68, 72-73, 76, 80-81, 84, 86, 91-92 & 100 (to point out those from compound examples 1-100; and with reference to data in Table 2).

Setting [3] is: text summary referring to data in Table 2.

pIC50: −log10 of the molar value. Read-outs that look alike come from different tables or passages of the source.

Sequence of Beta Secretase enzyme (BACE) (P56817 46-501): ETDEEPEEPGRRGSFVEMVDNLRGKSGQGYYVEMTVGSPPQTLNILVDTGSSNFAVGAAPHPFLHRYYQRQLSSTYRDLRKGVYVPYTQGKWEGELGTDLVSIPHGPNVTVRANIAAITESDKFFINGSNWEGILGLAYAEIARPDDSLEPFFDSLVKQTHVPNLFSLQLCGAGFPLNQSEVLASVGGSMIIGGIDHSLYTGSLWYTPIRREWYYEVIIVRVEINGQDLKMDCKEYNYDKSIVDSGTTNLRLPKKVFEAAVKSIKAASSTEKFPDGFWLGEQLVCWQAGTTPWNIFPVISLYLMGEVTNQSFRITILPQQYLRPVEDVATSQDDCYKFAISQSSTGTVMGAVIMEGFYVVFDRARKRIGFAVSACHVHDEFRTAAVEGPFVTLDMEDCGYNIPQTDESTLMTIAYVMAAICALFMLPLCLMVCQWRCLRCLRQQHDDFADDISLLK
Sequence of Cathepsin D (Cat D) (P07339 65-412, species assumed): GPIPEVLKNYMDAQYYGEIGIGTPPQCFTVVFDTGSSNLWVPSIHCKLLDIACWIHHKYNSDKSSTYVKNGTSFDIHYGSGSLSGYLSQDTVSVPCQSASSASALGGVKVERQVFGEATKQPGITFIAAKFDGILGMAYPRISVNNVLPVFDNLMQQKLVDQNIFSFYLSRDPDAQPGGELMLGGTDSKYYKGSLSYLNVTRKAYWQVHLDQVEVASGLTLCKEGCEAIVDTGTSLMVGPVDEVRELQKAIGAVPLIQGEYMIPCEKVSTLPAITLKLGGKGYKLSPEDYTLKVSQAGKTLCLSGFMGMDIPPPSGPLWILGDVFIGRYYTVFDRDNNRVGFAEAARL

Turning to `COc1cnc(C(=O)Nc2ccc3c(c2)[C@@]2(C)N=C(N)C(C)(C)S(=O)(=O)[C@@H]2CCC3)cn1` [Example 10, N-((4aR,11bR)-2-amino-3,3,11b-trimethyl-4,4-dioxido-3,4a,5,6,7,11b-hexahydrobenzo[3,4]cyclohepta[1,2-b][1,4]thiazin-10-yl)-5-methoxy-2-pyrazinecarboxamide], the values for the negative logarithm of the IC50 (pIC50) (in experiment [1]; in experiment [2]; on Cathepsin D (Cat D) (read-out: CatD IC50)) were 7.96, 8.40 and 3.47, respectively.
Take `Cc1cc(Cl)cnc1C(=O)Nc1ccc2c(c1)[C@@]1(C)N=C(N)C(C)(C)S(=O)(=O)[C@@H]1CCC2` [Example 11, N-((4aR,11bR)-2-amino-3,3,11b-trimethyl-4,4-dioxido-3,4a,5,6,7,11b-hexahydrobenzo[3,4]cyclohepta[1,2-b][1,4]thiazin-10-yl)-5-chloro-3-methyl-2-pyridinecarboxamide]: the pIC50 was 8.30 in experiment [1], 8.10 in experiment [2] and 3.66 on Cathepsin D (Cat D) (read-out: CatD IC50).
Regarding `Cc1cc(C#N)cnc1C(=O)Nc1ccc2c(c1)[C@@]1(C)N=C(N)C(C)(C)S(=O)(=O)[C@@H]1CCC2` [Example 12, N-((4aR,11bR)-2-amino-3,3,11b-trimethyl-4,4-dioxido-3,4a,5,6,7,11b-hexahydrobenzo[3,4]cyclohepta[1,2-b][1,4]thiazin-10-yl)-5-cyano-3-methyl-2-pyridinecarboxamide], the pIC50 in experiment [1] is 8.52; in experiment [2] it was 9.00; on Cathepsin D (Cat D) (read-out: CatD IC50), 2.98; on Cathepsin D (Cat D) (setting [3]), < 2.92.
Take `COc1cccnc1Nc1ccc2c(c1)[C@@]1(C)N=C(N)C(C)(C)S(=O)(=O)[C@@H]1CCO2` [Example 13, (4aR,11bR)-N^~10^~-(3-methoxy-2-pyridinyl)-3,3,11b-trimethyl-4a,5,6,11b-tetrahydro-3H-[1]benzoxepino[4,5-b][1,4]thiazine-2,10-diamine 4,4-dioxide]: the results for the pIC50 (in experiment [1]; in experiment [2]; at Cathepsin D (Cat D) (read-out: CatD IC50)) were 7.03, 7.14 and 3.43, respectively.
In the case of `CC#C[C@H](C)Oc1cnc(C(=O)Nc2ccc3c(c2)[C@@]2(C)N=C(N)C(C)(C)S(=O)(=O)[C@@H]2CCO3)cn1` [Example 15, N-((4aR,11bR)-2-amino-3,3,11b-trimethyl-4,4-dioxido-4a,5,6,11b-tetrahydro-3H-[1]benzoxepino[4,5-b][1,4]thiazin-10-yl)-5-(((1S)-1-methyl-2-butyn-1-yl)oxy)-2-pyrazinecarboxamide], the pIC50 in experiment [1] is 8.52; in experiment [2], 9.30; on Cathepsin D (Cat D) (read-out: CatD IC50) it was 2.71; at Cathepsin D (Cat D) (setting [3]), < 2.92.
For `CC#C[C@@H](C)Oc1cnc(C(=O)Nc2ccc3c(c2)[C@@]2(C)N=C(N)C(C)(C)S(=O)(=O)[C@@H]2CCO3)cn1` [Example 16, N-((4aR,11bR)-2-amino-3,3,11b-trimethyl-4,4-dioxido-4a,5,6,11b-tetrahydro-3H-[1]benzoxepino[4,5-b][1,4]thiazin-10-yl)-5-(((1R)-1-methyl-2-butyn-1-yl)oxy)-2-pyrazinecarboxamide] the same measures were 7.52, 6.86, 3.01 and < 3.10.
As to `Cc1cc(Cl)cnc1C(=O)Nc1ccc2c(c1)[C@]1(C)N=C(N)C(C)(C)S(=O)(=O)[C@H]1CCO2` [Example 17, N-((4aS,11bS)-2-amino-3,3,11b-trimethyl-4,4-dioxido-4a,5,6,11b-tetrahydro-3H-benzo[6,7]oxepino[4,5-b][1,4]thiazin-10-yl)-5-chloro-3-methylpicolinamide], the pIC50 was 5.84 in experiment [1], 6.08 in experiment [2] and < 3.40 at Cathepsin D (Cat D) (read-out: CatD IC50).
In the case of `Cc1cc(Cl)cnc1C(=O)Nc1cnc2c(c1)[C@@]1(C)N=C(N)C(C)(C)S(=O)(=O)[C@@H]1CCO2` [Example 18, N-((4aR,11bR)-2-amino-3,3,11b-trimethyl-4,4-dioxido-4a,5,6,11b-tetrahydro-3H-pyrido[3′,2′:6,7]oxepino[4,5-b][1,4]thiazin-10-yl)-5-chloro-3-methyl-2-pyridinecarboxamide], the pIC50 in experiment [1] is 8.22; in experiment [2], 7.85; at Cathepsin D (Cat D) (read-out: CatD IC50) it was 2.89; at Cathepsin D (Cat D) (setting [3]), < 2.92.
Regarding `CC1(C)C(N)=N[C@]2(C)c3cc(Nc4nccc5cc(Cl)cnc45)cnc3OCC[C@H]2S1(=O)=O` [Example 19, (4aR,11bR)-N^~10^~-(3-chloro-1,7-naphthyridin-8-yl)-3,3,11b-trimethyl-4a,5,6,11b-tetrahydro-3H-pyrido[3′,2′:6,7]oxepino[4,5-b][1,4]thiazine-2,10-diamine4,4-dioxide], the pIC50 in experiment [1] was 8.52; in experiment [2], 7.72; on Cathepsin D (Cat D) (read-out: CatD IC50), 3.58.
On to `Cc1cc(Cl)cnc1C(=O)Nc1cnc2c(c1)[C@@]1(C)N=C(N)C(C)(C)S(=O)(=O)[C@H]1CCO2` [Example 20, N-((4aS,11bR)-2-amino-3,3,11b-trimethyl-4,4-dioxido-4a,5,6,11b-tetrahydro-3H-pyrido[3′,2′:6,7]oxepino[4,5-b][1,4]thiazin-10-yl)-5-chloro-3-methyl-2-pyridinecarboxamide], for which the pIC50 was 7.72 in experiment [1], 7.66 in experiment [2] and 3.42 on Cathepsin D (Cat D) (read-out: CatD IC50).
For `Cc1cc(C#N)cnc1C(=O)Nc1cnc2c(c1)[C@@]1(C)N=C(N)C(C)(C)S(=O)(=O)[C@H]1CCO2` [Example 21, N-((4aS,11bR)-2-amino-3,3,11b-trimethyl-4,4-dioxido-4a,5,6,11b-tetrahydro-3H-pyrido[3′,2′:6,7]oxepino[4,5-b][1,4]thiazin-10-yl)-5-cyano-3-methyl-2-pyridinecarboxamide] the same measures were 8.15, 7.59 and 2.85.
`COc1cnc(C(=O)Nc2ccc3c(c2)[C@@]2(C)N=C(N)C(C)(C)S(=O)(=O)[C@@H]2CCO3)c(C)n1` [Example 22, N-((4aR,11bR)-2-amino-3,3,11b-trimethyl-4,4-dioxido-4a,5,6,11b-tetrahydro-3H-[1]benzoxepino[4,5-b][1,4]thiazin-10-yl)-5-methoxy-3-methyl-2-pyrazinecarboxamide]: the negative logarithm of the IC50 (pIC50) in experiment [1] was 7.77; in experiment [2], 8.15; on Cathepsin D (Cat D) (read-out: CatD IC50), 2.91.
The matching figures for `Cc1nc(OCC(F)(F)F)cnc1C(=O)Nc1ccc2c(c1)[C@@]1(C)N=C(N)C(C)(C)S(=O)(=O)[C@@H]1CCO2` [Example 23, N-((4aR,11bR)-2-amino-3,3,11b-trimethyl-4,4-dioxido-4a,5,6,11b-tetrahydro-3H-[1]benzoxepino[4,5-b][1,4]thiazin-10-yl)-3-methyl-5-(2,2,2-trifluoroethoxy)-2-pyrazinecarboxamide]: 8.52, 8.00 and 2.85.

The record behind these values is patent publication US9309263B2, “Fused multi-cyclic sulfone compounds as inhibitors of beta-secretase and methods of use thereof” (AMGEN INC., priority 2013, dated 2016).
